From patent US7731985B2, “4-aminopyrimidines and their use for the antimicrobial treatment of surfaces” (Ciba Specialty Chemicals Corporation, priority 2002, dated 2010)

Key:
Assay in all cases: MIC in microtitre plates (Example 10)
Type in all cases: cell-based
Set-up in all cases: unit not given here
Conditions in all cases: microtitre plate, 48 hours at 37° C., ≦20% growth
[1] = tested on: Escherichia coli NCTC 8196 (=EC)
Method: (§1) Determination of the Minimum Inhibitory Concentration (MIC Value) in Microtitre Plates Casein/soymeal peptone broth for preparation of pre-cultures of test bacteria and yeast Bacteria: • Pseudomonas aeruginosa CIP A-22 (=PA) • Escherichia coli NCTC 8196 (=EC) • Staphylococcus aureus ATCC 9144 (=SA) • Candida albicans ATCC 10231 (=CA) The test substances are pre-dissolved in dimethyl sulfoxide (DMSO) and tested in a dilution series of 1:2. Bacteria and yeast are cultured overnight in CASO broth. All the test organism suspensions are adjusted to an organism count of 1-5×10^6 CFU/ml using […] sodium chloride solution. The test substances are pre-pipetted into microtitre plates in amounts of 8 μl per well. The pre-adjusted organism suspensions are diluted 1:100 in CASO broth and are added in amounts of 192 μl per well to the test substances. The test batches are incubated for 48 hours at 37° C. The incubation, the growth is determined on the basis of the turbidity of the test batches (optical density) at 620 nm in a microplate reader. The minimum inhibitory concentration (MIC value) is the concentration of substance at which (compared to the growth of the control) an appreciable inhibition of growth (≦20% growth) of the test organisms is observed. Three microtitre plates are used for each test organism and substance concentration. All the substances are tested in duplicate.

[2] = tested on: Candida albicans ATCC 10231 (=CA)
Method: as §1

[3] = tested on: Staphylococcus aureus ATCC 9144 (=SA)
Method: as §1

[4] = tested on: Pseudomonas aeruginosa CIP A-22 (=PA)
Method: as §1

| Compound | MIC EC [1] | MIC CA [2] | MIC SA [3] | MIC PA [4] |
| --- | --- | --- | --- | --- |
| NCCNCCNc1nc(-c2ccccc2)nc(-c2cccc(C(F)(F)F)c2)c1-c1ccccc1 [compound 18] | 30 | 60 | 30 | 120 |
| CCCCCCCCNc1cc(C)nc(C2CC2)n1 [compound 67] | 30 | 7.5 | 7.5 | >120 |
| CCCCCCCCCCCCNc1cc(C)nc(-c2ccc(-c3ccccc3)cc2)n1 [compound 84] | 15 | 7.5 | 15 | >120 |
| NCCCN1CCN(CCCNc2nc(-c3ccccc3)nc(-c3cccc(C(F)(F)F)c3)c2-c2ccccc2)CC1 [compound 23] | 7.5 | 7.5 | 15 | 30 |
| CCCCCCCCCCCCCCNc1cc(C)nc(-c2cccc(F)c2)n1 [compound 75] | 15 | 7.5 | 7.5 | >120 |
| Cc1cc(NCc2ccccn2)nc(-c2cccnc2)n1 [compound 49] | >120 | >120 | 120 | >120 |
| Fc1ccc(-c2nc(-c3ccccc3)nc(N3CCCNCC3)c2-c2ccccc2)cc1 [compound 7] | 15 | 30 | 15 | >120 |
| CCCNc1cc(C)nc(-c2cccnc2)n1 [compound 31] | >120 | 120 | 60 | >120 |
| Cc1cc(NC2CCCCC2)nc(-c2cccnc2)n1 [compound 46] | >120 | 120 | 120 | >120 |
| CCCCCCCCCCCCCCCCNc1cc(C)nc(-c2cccnc2)n1 [compound 39] | 30 | 15 | <3.75 | >120 |
| CCCCCCCCCCCCCCNc1cc(C)nc(-c2cccnc2)n1 [compound 38] | 7.5 | <3.75 | <3.75 | >120 |
| CCCCCCCCCCCCCCNc1cc(C)nc(-c2ccc(C(C)(C)C)cc2)n1 [compound 72] | 15 | 7.5 | 7.5 | >120 |
| CCCCCCCCCCCCCCNc1cc(C)nc(-c2ccc(C)cc2)n1 [compound 79] | <3.75 | <3.75 | <3.75 | >120 |
| Cc1ccc(-c2nc(-c3ccccc3)nc(NCCCN(C)CCCN)c2-c2ccccc2)cc1 [compound 12] | 3.75 | 7.5 | 7.5 | 7.5 |
| Cc1cc(NC(C)CC(C)C)nc(-c2cccnc2)n1 (centres unmarked) [compound 41] | >120 | 60 | 30 | >120 |
| CCCCCCCCNc1cc(C)nc(-c2ccccc2)n1 [compound 63] | 30 | 60 | 15 | >120 |
| Cc1cc(Nc2ccccn2)nc(-c2cccnc2)n1 [compound 47] | >120 | >120 | 120 | >120 |
| CCCCCCCCCCCCCNc1cc(C)nc(-c2cccnc2)n1 [compound 37] | 15 | 7.5 | 7.5 | >120 |
| CCCCCCCCCCCCNc1cc(C)nc(-c2cccs2)n1 [compound 86] | 15 | 7.5 | 15 | <120 |
| NCCCCCCCCCCNc1nc(-c2ccccc2)nc(-c2cccc3ccccc23)c1-c1ccccc1 [compound 5] | >120 | >120 | 7.5 | >120 |
| COc1ccccc1-c1nc(-c2ccccc2)nc(N2CCN(CCN)CC2)c1-c1ccccc1 [compound 27] | 30 | 60 | 30 | >120 |
| CN(CCCN)CCCNc1nc(-c2ccccc2)nc(-c2cccc(C(F)(F)F)c2)c1-c1ccccc1 [compound 21] | <3.75 | <3.75 | 7.5 | 7.5 |
| NCCCOCCCCOCCCNc1nc(-c2ccccc2)nc(-c2cccc3ccccc23)c1-c1ccccc1 [compound 6] | 60 | >120 | 7.5 | >120 |
| COCC(C)Nc1cc(C)nc(-c2cccnc2)n1 (centres unmarked) [compound 43] | >120 | 120 | 60 | >120 |
| CCCCNc1cc(C)nc(-c2cccnc2)n1 [compound 32] | 120 | 60 | 60 | >120 |
| CCCN(CCC)c1cc(C)nc(-c2cccnc2)n1 [compound 52] | >120 | 120 | 30 | >120 |
| CCCCCCCCNc1cc(C)nc(-c2cccs2)n1 [compound 59] | 60 | 60 | 15 | >120 |

Next, values leading:

| MIC EC [1] | MIC CA [2] | MIC SA [3] | MIC PA [4] | Compound |
| --- | --- | --- | --- | --- |
| >120 | 120 | 60 | >120 | Cc1cc(NC(C)CC(C)C)nc(-c2csc(C)n2)n1 (centres unmarked) [compound 147] |
| 120 | 30 | 15 | >120 | CCCCCCNc1cc(C)nc(C(C)C)n1 [compound 117] |
| 15 | 7.5 | 15 | <120 | CCCCCCCCCCCCNc1cc(C)nc(-c2ccncc2)n1 [compound 88] |
| >120 | >120 | 60 | >120 | CCCCC(CC)CNc1cc(C)nc(-c2cccs2)n1 (centres unmarked) [compound 132] |
| 15 | 7.5 | <3.75 | >120 | CCCCCCCCCCCCNc1cc(C)nc(C(C)C)n1 [compound 93] |
| >120 | >120 | 120 | >120 | Cc1cc(NC(C)CC(C)C)nc(-c2ccc(C)c(F)c2)n1 (centres unmarked) [compound 148] |
| >120 | 120 | 7.5 | >120 | CCCCC(CC)CNc1cc(C)nc(-c2ccncc2)n1 (centres unmarked) [compound 134] |
| 120 | 60 | 60 | >120 | CCCCN(C)c1cc(C)nc(-c2cccs2)n1 [compound 124] |
| >120 | 120 | 60 | >120 | Cc1ccc(-c2nc(C)cc(NC(C)CC(C)C)n2)cc1 (centres unmarked) [compound 144] |
| >120 | 120 | >120 | >120 | Cc1cc(NC(C)CC(C)C)nc(C(C)C)n1 (centres unmarked) [compound 146] |
| 15 | 15 | 15 | >120 | CCCCCCCCCCNc1cc(C)nc(-c2ccncc2)n1 [compound 100] |
| >120 | >120 | 15 | >120 | CCCCC(CC)CNc1cc(C)nc(-c2ccccc2)n1 (centres unmarked) [compound 133] |
| 30 | 15 | 15 | >120 | CCCCCCCCCCNc1cc(C)nc(-c2ccc(-c3ccccc3)cc2)n1 [compound 96] |
| >120 | 120 | >120 | >120 | Cc1cc(NC(C)CC(C)C)nc(C2CC2)n1 (centres unmarked) [compound 145] |
| 15 | 7.5 | 7.5 | >120 | CCCCCCCCCCNc1cc(C)nc(C(C)C)n1 [compound 105] |
| >120 | >120 | 30 | >120 | CCCCCCNc1cc(C)nc(-c2ccc(-c3ccccc3)cc2)n1 [compound 108] |
| 60 | 30 | 15 | >120 | CCCCCCCCCCNc1cc(C)nc(-c2ccc(C)cc2)n1 [compound 103] |
| >120 | >120 | 120 | >120 | CCCCN(C)c1cc(C)nc(-c2ccc(C(C)(C)C)cc2)n1 [compound 123] |
| >120 | >120 | 120 | >120 | CCCCC(CC)CNc1cc(C)nc(-c2ccc(C(C)(C)C)cc2)n1 (centres unmarked) [compound 131] |
| 7.5 | 7.5 | <3.75 | >120 | CCCCCCCCCCNc1cc(C)nc(C2CC2)n1 [compound 104] |
